The text below walks through data of patent US20250197382A1, “KIF18A INHIBITOR” (WIGEN BIOMEDICINE TECHNOLOGY (SHANGHAI) CO., LTD., priority 2022, published 2025).

Structures are written as SMILES.

In the experiment the target is Recombinant human KIF18A (1-467His-tagged) protein (Homo sapiens (Human), UniProt Q8NI77). As to the kind of experiment: KIF18A enzyme assay (microtubule-stimulated ATPase activity, ADP-Glo). In kind it is biochemical. The settings on record: 30 nM KIF18A, ATP 75 μM, read-out: inhibitory activity against KIF18A IC50. In a few lines:
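Baculovirus-expressed human KIF18A (1-467, His-tagged; 30 nM) preincubated 15 min at room temperature with compound (22-point 2-fold series) in pH 7.5 Tris buffer containing 30 μg/mL pig microtubules and 1 μM paclitaxel.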

Chain of Recombinant human KIF18A (1-467His-tagged) protein (Q8NI77 1-467): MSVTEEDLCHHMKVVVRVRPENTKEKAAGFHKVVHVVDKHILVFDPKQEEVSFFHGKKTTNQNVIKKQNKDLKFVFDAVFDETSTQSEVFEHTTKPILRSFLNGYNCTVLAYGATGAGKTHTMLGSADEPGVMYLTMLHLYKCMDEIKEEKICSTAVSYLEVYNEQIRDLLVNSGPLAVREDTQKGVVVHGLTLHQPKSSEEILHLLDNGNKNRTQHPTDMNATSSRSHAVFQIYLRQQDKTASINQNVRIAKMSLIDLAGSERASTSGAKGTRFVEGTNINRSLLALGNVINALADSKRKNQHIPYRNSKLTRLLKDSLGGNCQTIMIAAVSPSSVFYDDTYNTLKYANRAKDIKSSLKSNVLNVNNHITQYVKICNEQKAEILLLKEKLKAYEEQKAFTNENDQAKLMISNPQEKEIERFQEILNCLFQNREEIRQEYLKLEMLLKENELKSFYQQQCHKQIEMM
Chain of Recombinant human KIF18A (1-467His-tagged) protein (P02550 whole entry partner): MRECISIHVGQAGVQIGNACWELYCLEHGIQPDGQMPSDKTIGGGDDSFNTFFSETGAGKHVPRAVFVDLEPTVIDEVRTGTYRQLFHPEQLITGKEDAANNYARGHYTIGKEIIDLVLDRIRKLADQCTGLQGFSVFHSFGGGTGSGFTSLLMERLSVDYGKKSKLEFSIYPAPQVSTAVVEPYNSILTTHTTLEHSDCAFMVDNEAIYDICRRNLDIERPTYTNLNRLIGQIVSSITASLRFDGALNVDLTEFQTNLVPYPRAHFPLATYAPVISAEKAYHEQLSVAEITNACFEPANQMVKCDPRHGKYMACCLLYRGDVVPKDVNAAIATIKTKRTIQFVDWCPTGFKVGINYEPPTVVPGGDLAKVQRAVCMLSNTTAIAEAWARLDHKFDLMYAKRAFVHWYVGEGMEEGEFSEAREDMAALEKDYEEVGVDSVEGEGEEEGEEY
Chain of Recombinant human KIF18A (1-467His-tagged) protein (P02554 whole entry partner): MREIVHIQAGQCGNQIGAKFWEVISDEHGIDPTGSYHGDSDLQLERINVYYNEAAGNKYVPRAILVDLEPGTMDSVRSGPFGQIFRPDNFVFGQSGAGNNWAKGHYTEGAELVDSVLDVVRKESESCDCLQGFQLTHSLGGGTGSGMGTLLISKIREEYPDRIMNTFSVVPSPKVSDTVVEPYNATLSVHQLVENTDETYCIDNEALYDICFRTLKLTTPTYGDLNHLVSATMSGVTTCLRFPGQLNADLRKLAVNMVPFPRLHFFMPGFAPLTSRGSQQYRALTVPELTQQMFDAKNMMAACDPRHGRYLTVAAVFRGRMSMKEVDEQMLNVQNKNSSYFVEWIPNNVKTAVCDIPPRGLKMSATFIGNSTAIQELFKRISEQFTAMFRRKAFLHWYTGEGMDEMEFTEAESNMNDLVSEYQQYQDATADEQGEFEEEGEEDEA

`C[C@@H](CO)NS(=O)(=O)c1ccc(NC(=O)c2cc(N3CCC(F)(F)CC3)c3c(ccn3C)c2)c(N2CCC3(CC2)CC3)c1` [Compound 445]: the IC50 was at most 100 nM.

On to `C[C@H](CO)NS(=O)(=O)c1ccc(NC(=O)c2cc(N3CCC(F)(F)CC3)c3c(ccn3C)c2)c(N2CCC3(CC2)CC3)c1` [Compound 446], for which the IC50 was at most 100 nM.

For `C[C@@H]1CN(c2cc(C(=O)Nc3ccc(S(=O)(=O)N[C@@H](C)CO)cc3N3CCC4(CC3)CC4)cc3ccn(C)c23)CCO1` [Compound 447], the IC50 is at most 100 nM.

Turning to `C[C@H](CO)NS(=O)(=O)c1ccc(NC(=O)c2cc(N3CCO[C@H](C)C3)c3c(ccn3C)c2)c(N2CCC3(CC2)CC3)c1` [Compound 448], the half-inhibitory concentration (IC50) is at most 100 nM.

As for `Cn1ccc2cc(NC(=O)c3ccc(NS(=O)(=O)CCO)cc3N3CCC4(CC3)CC4)nc(N3CCC(F)(F)CC3)c21` [Compound 449], the 50% inhibitory concentration (IC50) was at most 100 nM.

Take `C[C@@H]1CN(c2nc(NC(=O)c3ccc(NS(=O)(=O)CCO)cc3N3CCC4(CC3)CC4)cc3ccn(C)c23)CCO1` [Compound 450]: the IC50 was at most 100 nM.

In the case of `C[C@H]1CN(c2nc(NC(=O)c3ccc(NS(=O)(=O)CCO)cc3N3CCC4(CC3)CC4)cc3ccn(C)c23)CCO1` [Compound 451], the IC50 is at most 100 nM.

`Cn1ccc2cc(NC(=O)c3ccc(NS(=O)(=O)CCO)cc3N3CCC4(CC3)CC4)nc(N3CC(F)(F)C3)c21` [Compound 452]: the IC50 is at most 100 nM.

On to `Cn1ccc2cc(NC(=O)c3ccc(NS(=O)(=O)CCO)cc3N3CCC4(CC3)CC4)nc(OCCC(F)(F)F)c21` [Compound 453], for which the IC50 was at most 100 nM.

As for `Cn1ccc2cc(NC(=O)c3ccc(NS(=O)(=O)CCO)cc3N3CCC4(CC3)CC4)nc(N3CCC4(CC4)C3)c21` [Compound 454], the IC50 was at most 100 nM.

For `Cn1ccc2cc(NC(=O)c3ccc(NS(=O)(=O)CCO)cc3N3CCC4(CC3)CC4)nc(OC3CCC3)c21` [Compound 455], the concentration for half-maximal inhibition (IC50) was at most 100 nM.

For `Cn1ccc2cc(NC(=O)c3ccc(NS(=O)(=O)CCO)cc3N3CCC4(CC3)CC4)nc(N3CCC(C)(F)C3)c21` (stereo not drawn) [Compound 456], the 50% inhibitory concentration (IC50) is at most 100 nM.

As to `Cn1ccc2cc(NC(=O)c3ccc(NS(=O)(=O)CCO)cc3N3CCC4(CC3)CC4)nc(N3CCC(F)CC3)c21` [Compound 457], the IC50 is at most 100 nM.

With `Cn1ccc2cc(NC(=O)c3ccc(NS(=O)(=O)CCO)cc3N3CCC4(CC3)CC4)nc(N3CC4CC4C3)c21` (stereo not drawn) [Compound 458], the 50% inhibitory concentration (IC50) is at most 100 nM.

Consider `Cn1ccc2cc(NC(=O)c3ccc(NS(=O)(=O)CCO)cc3N3CCC4(CC3)CC4)nc(NC(C)(C)CO)c21` [Compound 459], for which the half-maximal inhibitory concentration (IC50) was at most 100 nM.

With `Cn1ccc2cc(NC(=O)c3ccc(NS(=O)(=O)CCO)cc3N3CCC4(CC3)CC4)nc(N3CCOCC3)c21` [Compound 460], the IC50 is at most 100 nM.

Turning to `C[C@@H](CO)S(=O)(=O)Nc1ccc(C(=O)Nc2cc3ccn(C)c3c(N3CCC(F)(F)CC3)n2)c(N2CCC3(CC2)CC3)c1` [Compound 461], the IC50 is at most 100 nM.

For the compound `C[C@H](CO)S(=O)(=O)Nc1ccc(C(=O)Nc2cc3ccn(C)c3c(N3CCC(F)(F)CC3)n2)c(N2CCC3(CC2)CC3)c1` [Compound 462], the IC50 is at most 100 nM.

As to `C[C@@H]1CN(c2nc(NC(=O)c3ccc(NS(=O)(=O)[C@@H](C)CO)cc3N3CCC4(CC3)CC4)cc3ccn(C)c23)CCO1` [Compound 463], the IC50 is at most 100 nM.

`C[C@@H]1CN(c2nc(NC(=O)c3ccc(NS(=O)(=O)[C@H](C)CO)cc3N3CCC4(CC3)CC4)cc3ccn(C)c23)CCO1` [Compound 464]: the IC50 is at most 100 nM.

On to `Cn1ccc2cc(NC(=O)c3ccc(S(=O)(=O)NCCO)cc3N3CCC4(CC3)CC4)nc(N3CCC(F)(F)CC3)c21` [Compound 465], for which the IC50 is at most 100 nM.

Take `C[C@@H]1CN(c2nc(NC(=O)c3ccc(S(=O)(=O)NCCO)cc3N3CCC4(CC3)CC4)cc3ccn(C)c23)CCO1` [Compound 466]: the IC50 is at most 100 nM.

With `C[C@H]1CN(c2nc(NC(=O)c3ccc(S(=O)(=O)NCCO)cc3N3CCC4(CC3)CC4)cc3ccn(C)c23)CCO1` [Compound 467], the 50% inhibitory concentration (IC50) is at most 100 nM.

For the compound `Cn1ccc2cc(NC(=O)c3ccc(S(=O)(=O)NCCO)cc3N3CCC4(CC3)CC4)nc(N3CC(F)(F)C3)c21` [Compound 468], the IC50 was at most 100 nM.

In the case of `Cn1ccc2cc(NC(=O)c3ccc(S(=O)(=O)NCCO)cc3N3CCC4(CC3)CC4)nc(OCCC(F)(F)F)c21` [Compound 469], the 50% inhibitory concentration (IC50) is at most 100 nM.

In the case of `Cn1ccc2cc(NC(=O)c3ccc(S(=O)(=O)NCCO)cc3N3CCC4(CC3)CC4)nc(N3CCC4(CC4)C3)c21` [Compound 470], the half-inhibitory concentration (IC50) was at most 100 nM.

Take `Cn1ccc2cc(NC(=O)c3ccc(S(=O)(=O)NCCO)cc3N3CCC4(CC3)CC4)nc(OC3CCC3)c21` [Compound 471]: the IC50 is at most 100 nM.

As for `Cn1ccc2cc(NC(=O)c3ccc(S(=O)(=O)NCCO)cc3N3CCC4(CC3)CC4)nc(N3CCC(C)(F)C3)c21` (stereo not drawn) [Compound 472], the IC50 was at most 100 nM.

For `Cn1ccc2cc(NC(=O)c3ccc(S(=O)(=O)NCCO)cc3N3CCC4(CC3)CC4)nc(N3CCC(F)CC3)c21` [Compound 473], the half-maximal inhibitory concentration (IC50) was at most 100 nM.

For `Cn1ccc2cc(NC(=O)c3ccc(S(=O)(=O)NCCO)cc3N3CCC4(CC3)CC4)nc(N3CC4CC4C3)c21` (stereo not drawn) [Compound 474], the IC50 is at most 100 nM.

With `Cn1ccc2cc(NC(=O)c3ccc(S(=O)(=O)NCCO)cc3N3CCC4(CC3)CC4)nc(CC(C)(C)CO)c21` [Compound 475], the concentration for half-maximal inhibition (IC50) is at most 100 nM.

In the case of `Cn1ccc2cc(NC(=O)c3ccc(S(=O)(=O)NCCO)cc3N3CCC4(CC3)CC4)nc(N3CCOCC3)c21` [Compound 476], the concentration for half-maximal inhibition (IC50) is at most 100 nM.

Regarding `C[C@@H](CO)NS(=O)(=O)c1ccc(C(=O)Nc2cc3ccn(C)c3c(N3CCC(F)(F)CC3)n2)c(N2CCC3(CC2)CC3)c1` [Compound 477], the IC50 is at most 100 nM.

Take `C[C@H](CO)NS(=O)(=O)c1ccc(C(=O)Nc2cc3ccn(C)c3c(N3CCC(F)(F)CC3)n2)c(N2CCC3(CC2)CC3)c1` [Compound 478]: the IC50 was at most 100 nM.

On to `C[C@@H]1CN(c2nc(NC(=O)c3ccc(S(=O)(=O)N[C@@H](C)CO)cc3N3CCC4(CC3)CC4)cc3ccn(C)c23)CCO1` [Compound 479], for which the concentration for half-maximal inhibition (IC50) was at most 100 nM.

In the case of `C[C@H](CO)NS(=O)(=O)c1ccc(C(=O)Nc2cc3ccn(C)c3c(N3CCO[C@H](C)C3)n2)c(N2CCC3(CC2)CC3)c1` [Compound 480], the IC50 is at most 100 nM.

As to `C[C@@H]1CN(c2nc(C(=O)Nc3ccc(NS(=O)(=O)CCO)cc3N3CCC4(CC3)CC4)cc3ccn(C)c23)CCO1` [Compound 482], the IC50 is at most 100 nM.

For the compound `C[C@H]1CN(c2nc(C(=O)Nc3ccc(NS(=O)(=O)CCO)cc3N3CCC4(CC3)CC4)cc3ccn(C)c23)CCO1` [Compound 483], the IC50 was at most 100 nM.

As to `Cn1ccc2cc(C(=O)Nc3ccc(NS(=O)(=O)CCO)cc3N3CCC4(CC3)CC4)nc(N3CC(F)(F)C3)c21` [Compound 484], the IC50 is at most 100 nM.

Consider `Cn1ccc2cc(C(=O)Nc3ccc(NS(=O)(=O)CCO)cc3N3CCC4(CC3)CC4)nc(OCCC(F)(F)F)c21` [Compound 485], for which the half-maximal inhibitory concentration (IC50) was at most 100 nM.

As for `Cn1ccc2cc(C(=O)Nc3ccc(NS(=O)(=O)CCO)cc3N3CCC4(CC3)CC4)nc(N3CCC4(CC4)C3)c21` [Compound 486], the concentration for half-maximal inhibition (IC50) is at most 100 nM.

As for `Cn1ccc2cc(C(=O)Nc3ccc(NS(=O)(=O)CCO)cc3N3CCC4(CC3)CC4)nc(OC3CCC3)c21` [Compound 487], the IC50 is at most 100 nM.

For the compound `Cn1ccc2cc(C(=O)Nc3ccc(NS(=O)(=O)CCO)cc3N3CCC4(CC3)CC4)nc(N3CCC(C)(F)C3)c21` (stereo not drawn) [Compound 488], the concentration for half-maximal inhibition (IC50) was at most 100 nM.

On to `Cn1ccc2cc(C(=O)Nc3ccc(NS(=O)(=O)CCO)cc3N3CCC4(CC3)CC4)nc(N3CCC(F)CC3)c21` [Compound 489], for which the 50% inhibitory concentration (IC50) is at most 100 nM.

For the compound `Cn1ccc2cc(C(=O)Nc3ccc(NS(=O)(=O)CCO)cc3N3CCC4(CC3)CC4)nc(N3CC4CC4C3)c21` (stereo not drawn) [Compound 490], the IC50 is at most 100 nM.

As to `Cn1ccc2cc(C(=O)Nc3ccc(NS(=O)(=O)CCO)cc3N3CCC4(CC3)CC4)nc(NC(C)(C)CO)c21` [Compound 491], the half-maximal inhibitory concentration (IC50) was at most 100 nM.

As for `Cn1ccc2cc(C(=O)Nc3ccc(NS(=O)(=O)CCO)cc3N3CCC4(CC3)CC4)nc(N3CCOCC3)c21` [Compound 492], the IC50 is at most 100 nM.

For the compound `C[C@@H](CO)S(=O)(=O)Nc1ccc(NC(=O)c2cc3ccn(C)c3c(N3CCC(F)(F)CC3)n2)c(N2CCC3(CC2)CC3)c1` [Compound 493], the concentration for half-maximal inhibition (IC50) was at most 100 nM.

In the case of `C[C@H](CO)S(=O)(=O)Nc1ccc(NC(=O)c2cc3ccn(C)c3c(N3CCC(F)(F)CC3)n2)c(N2CCC3(CC2)CC3)c1` [Compound 494], the IC50 is at most 100 nM.

Consider `C[C@@H]1CN(c2nc(C(=O)Nc3ccc(NS(=O)(=O)[C@@H](C)CO)cc3N3CCC4(CC3)CC4)cc3ccn(C)c23)CCO1` [Compound 495], for which the IC50 is at most 100 nM.

With `C[C@@H]1CN(c2nc(C(=O)Nc3ccc(NS(=O)(=O)[C@H](C)CO)cc3N3CCC4(CC3)CC4)cc3ccn(C)c23)CCO1` [Compound 496], the IC50 is at most 100 nM.

Turning to `Cn1ccc2cc(C(=O)Nc3ccc(S(=O)(=O)NCCO)cc3N3CCC4(CC3)CC4)nc(N3CCC(F)(F)CC3)c21` [Compound 497], the half-inhibitory concentration (IC50) was at most 100 nM.

Turning to `C[C@@H]1CN(c2nc(C(=O)Nc3ccc(S(=O)(=O)NCCO)cc3N3CCC4(CC3)CC4)cc3ccn(C)c23)CCO1` [Compound 498], the IC50 is at most 100 nM.

Turning to `C[C@H]1CN(c2nc(C(=O)Nc3ccc(S(=O)(=O)NCCO)cc3N3CCC4(CC3)CC4)cc3ccn(C)c23)CCO1` [Compound 499], the half-inhibitory concentration (IC50) is at most 100 nM.

Consider `Cn1ccc2cc(C(=O)Nc3ccc(S(=O)(=O)NCCO)cc3N3CCC4(CC3)CC4)nc(N3CC(F)(F)C3)c21` [Compound 500], for which the IC50 was at most 100 nM.

`Cn1ccc2cc(C(=O)Nc3ccc(S(=O)(=O)NCCO)cc3N3CCC4(CC3)CC4)nc(OCCC(F)(F)F)c21` [Compound 501]: the 50% inhibitory concentration (IC50) is at most 100 nM.

As for `Cn1ccc2cc(C(=O)Nc3ccc(S(=O)(=O)NCCO)cc3N3CCC4(CC3)CC4)nc(N3CCC4(CC4)C3)c21` [Compound 502], the IC50 was at most 100 nM.
